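Dose response: 5 concentrations. Exposure: 48 h. Format: 96-well plates. Endpoint: linear interpolation; highest concentration if not reached. Here, GI50 denotes the concentration required for 50% inhibition of growth. TGI marks complete inhibition of growth.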
Experiments:
Test in all cases: growth of human tumour cells (NCI), 48 h
786-0 renal = tested on: 786-0 renal
A498 renal = tested on: A498 renal
A549 NSCLC = tested on: A549 NSCLC
ACHN renal = tested on: ACHN renal
BT-549 breast = tested on: BT-549 breast
CAKI-1 renal = tested on: CAKI-1 renal
CCRF-CEM leukemia = tested on: CCRF-CEM leukemia
COLO 205 colon = tested on: COLO 205 colon
DU-145 prostate = tested on: DU-145 prostate
EKVX NSCLC = tested on: EKVX NSCLC
HCC-2998 colon = tested on: HCC-2998 colon
HCT-116 colon = tested on: HCT-116 colon
HCT-15 colon = tested on: HCT-15 colon
HL-60(TB) leukemia = tested on: HL-60(TB) leukemia
HOP-62 NSCLC = tested on: HOP-62 NSCLC
HOP-92 NSCLC = tested on: HOP-92 NSCLC
HS 578T breast = tested on: HS 578T breast
HT29 colon = tested on: HT29 colon
IGROV1 ovarian = tested on: IGROV1 ovarian
K-562 leukemia = tested on: K-562 leukemia
KM12 colon = tested on: KM12 colon
M14 melanoma = tested on: M14 melanoma
MALME-3M melanoma = tested on: MALME-3M melanoma
MCF7 breast = tested on: MCF7 breast
MDA-MB-231 breast = tested on: MDA-MB-231 breast
MDA-MB-435 = tested on: MDA-MB-435
MOLT-4 leukemia = tested on: MOLT-4 leukemia
NCI-H226 lung = tested on: NCI-H226 lung
NCI-H23 lung = tested on: NCI-H23 lung
NCI-H522 lung = tested on: NCI-H522 lung
NCI/ADR-RES ovarian = tested on: NCI/ADR-RES ovarian
OVCAR-4 ovarian = tested on: OVCAR-4 ovarian
OVCAR-5 ovarian = tested on: OVCAR-5 ovarian
OVCAR-8 ovarian = tested on: OVCAR-8 ovarian
PC-3 prostate = tested on: PC-3 prostate
RPMI-8226 leukemia = tested on: RPMI-8226 leukemia
RXF 393 renal = tested on: RXF 393 renal
SF-268 CNS = tested on: SF-268 CNS
SF-295 CNS = tested on: SF-295 CNS
SF-539 CNS = tested on: SF-539 CNS
SK-MEL-2 melanoma = tested on: SK-MEL-2 melanoma
SK-MEL-28 melanoma = tested on: SK-MEL-28 melanoma
SK-MEL-5 melanoma = tested on: SK-MEL-5 melanoma
SK-OV-3 ovarian = tested on: SK-OV-3 ovarian
SN12C renal = tested on: SN12C renal
SNB-19 CNS = tested on: SNB-19 CNS
SNB-75 CNS = tested on: SNB-75 CNS
SR leukemia = tested on: SR leukemia
SW-620 colon = tested on: SW-620 colon
T-47D breast = tested on: T-47D breast
TK-10 renal = tested on: TK-10 renal
U251 CNS = tested on: U251 CNS
UACC-257 melanoma = tested on: UACC-257 melanoma
UACC-62 melanoma = tested on: UACC-62 melanoma
UO-31 renal = tested on: UO-31 renal

SMILES: Cc1ccc(-c2nnc(SCc3ccc(O)c4ncccc34)o2)cc1
- GI50 (786-0 renal): 1.61 µM
- TGI (786-0 renal): 6.81 µM
- GI50 (A498 renal): 1.08 µM
- TGI (A498 renal): 13.6 µM
- GI50 (A549 NSCLC): 1.95 µM
- TGI (A549 NSCLC): > 100 µM
- GI50 (ACHN renal): 0.649 µM
- TGI (ACHN renal): 2.32 µM
- GI50 (BT-549 breast): 1.06 µM
- TGI (BT-549 breast): > 100 µM
- GI50 (CAKI-1 renal): 1.8 µM
- TGI (CAKI-1 renal): 7.72 µM
- GI50 (CCRF-CEM leukemia): 0.518 µM
- TGI (CCRF-CEM leukemia): > 100 µM
- GI50 (COLO 205 colon): 8.41 µM
- TGI (COLO 205 colon): > 100 µM
- GI50 (DU-145 prostate): 1.46 µM
- TGI (DU-145 prostate): > 100 µM
- GI50 (EKVX NSCLC): 1.73 µM
- TGI (EKVX NSCLC): 9.86 µM
- GI50 (HCC-2998 colon): 0.933 µM
- TGI (HCC-2998 colon): > 100 µM
- GI50 (HCT-116 colon): 0.537 µM
- TGI (HCT-116 colon): > 100 µM
- GI50 (HCT-15 colon): 0.492 µM
- TGI (HCT-15 colon): > 100 µM
- GI50 (HL-60(TB) leukemia): 0.52 µM
- TGI (HL-60(TB) leukemia): 10.2 µM
- GI50 (HOP-62 NSCLC): 1.06 µM
- TGI (HOP-62 NSCLC): 3.83 µM
- GI50 (HOP-92 NSCLC): 0.435 µM
- TGI (HOP-92 NSCLC): 4.08 µM
- GI50 (HS 578T breast): 0.57 µM
- TGI (HS 578T breast): > 100 µM
- GI50 (HT29 colon): 6.43 µM
- TGI (HT29 colon): > 100 µM
- GI50 (IGROV1 ovarian): 1.55 µM
- TGI (IGROV1 ovarian): 9.86 µM
- GI50 (K-562 leukemia): 1.14 µM
- TGI (K-562 leukemia): 66.3 µM
- GI50 (KM12 colon): 1.91 µM
- TGI (KM12 colon): > 100 µM
- GI50 (M14 melanoma): 0.816 µM
- TGI (M14 melanoma): 5.49 µM
- GI50 (MALME-3M melanoma): 1.96 µM
- TGI (MALME-3M melanoma): 8.23 µM
- GI50 (MCF7 breast): 0.388 µM
- TGI (MCF7 breast): > 100 µM
- GI50 (MDA-MB-231 breast): 2.12 µM
- TGI (MDA-MB-231 breast): 27.5 µM
- GI50 (MDA-MB-435): 0.5 µM
- TGI (MDA-MB-435): > 100 µM
- GI50 (MOLT-4 leukemia): 0.877 µM
- TGI (MOLT-4 leukemia): > 100 µM
- GI50 (NCI-H226 lung): 2.42 µM
- TGI (NCI-H226 lung): > 100 µM
- GI50 (NCI-H23 lung): 1.47 µM
- TGI (NCI-H23 lung): 13 µM
- GI50 (NCI-H522 lung): 2.29 µM
- TGI (NCI-H522 lung): > 100 µM
- GI50 (NCI/ADR-RES ovarian): 0.706 µM
- TGI (NCI/ADR-RES ovarian): 7.02 µM
- GI50 (OVCAR-4 ovarian): 2.45 µM
- TGI (OVCAR-4 ovarian): > 100 µM
- GI50 (OVCAR-5 ovarian): 4.82 µM
- TGI (OVCAR-5 ovarian): > 100 µM
- GI50 (OVCAR-8 ovarian): 0.85 µM
- TGI (OVCAR-8 ovarian): > 100 µM
- GI50 (PC-3 prostate): 0.457 µM
- TGI (PC-3 prostate): > 100 µM
- GI50 (RPMI-8226 leukemia): 0.648 µM
- TGI (RPMI-8226 leukemia): > 100 µM
- GI50 (RXF 393 renal): 1.12 µM
- TGI (RXF 393 renal): 32.2 µM
- GI50 (SF-268 CNS): 0.503 µM
- TGI (SF-268 CNS): > 100 µM
- GI50 (SF-295 CNS): 1.02 µM
- TGI (SF-295 CNS): 5.78 µM
- GI50 (SF-539 CNS): 0.561 µM
- TGI (SF-539 CNS): 5.92 µM
- GI50 (SK-MEL-2 melanoma): 2.24 µM
- TGI (SK-MEL-2 melanoma): 39.4 µM
- GI50 (SK-MEL-28 melanoma): 1.04 µM
- TGI (SK-MEL-28 melanoma): > 100 µM
- GI50 (SK-MEL-5 melanoma): 0.844 µM
- TGI (SK-MEL-5 melanoma): 6.95 µM
- GI50 (SK-OV-3 ovarian): 1.98 µM
- TGI (SK-OV-3 ovarian): 6.9 µM
- GI50 (SN12C renal): 0.966 µM
- TGI (SN12C renal): > 100 µM
- GI50 (SNB-19 CNS): 0.513 µM
- TGI (SNB-19 CNS): 14.3 µM
- GI50 (SNB-75 CNS): 0.283 µM
- TGI (SNB-75 CNS): 3.93 µM
- GI50 (SR leukemia): 0.568 µM
- TGI (SR leukemia): 42.7 µM
- GI50 (SW-620 colon): 1.06 µM
- TGI (SW-620 colon): > 100 µM
- GI50 (T-47D breast): 1.83 µM
- TGI (T-47D breast): 7.4 µM
- GI50 (TK-10 renal): 1.28 µM
- TGI (TK-10 renal): 9.24 µM
- GI50 (U251 CNS): 0.444 µM
- TGI (U251 CNS): > 100 µM
- GI50 (UACC-257 melanoma): 2.33 µM
- TGI (UACC-257 melanoma): 9.3 µM
- GI50 (UACC-62 melanoma): 1.76 µM
- TGI (UACC-62 melanoma): 4.74 µM
- GI50 (UO-31 renal): 0.567 µM
- TGI (UO-31 renal): 3.24 µM

— PubChem BioAssay (NCI)
